Results reported in PubChem BioAssay AID248 (DTP/NCI, 2004).
“And” between values parts separate entries of the source, which are not always exact repeats. Identical values can stand only once. Inconclusive results and toxic doses are left out. Rule as the data show it: active = T/C of 150% or more; inactive = T/C below 125%.

System: L1210 leukemia ip in BDF1 mice, survival T/C
Assay: NCI In Vivo Anticancer Drug Screen. Data for tumor model L1210 Leukemia (intraperitoneal) in B6D2F1 (BDF1) mice
Details: endpoint: mean survival time, higher = longer survival
Procedure, shortened: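 Value reflects the ratio of survival in compound-treated mice to survival in vehicle-treated controls, with both groups carrying the same transplanted tumor.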

[1] = dose: 100.0 mg/kg/injection, schedule: Q01DX009 (ip), vehicle: saline
[2] = dose: 200.0 mg/kg/injection, schedule: Q01DX009 (ip), vehicle: saline
[3] = dose: 100.0 mg/kg/injection, schedule: Q01DX009 (ip), vehicle: Klucel (hydroxypropylcellulose) (HPC)
[4] = dose: 200.0 mg/kg/injection, schedule: Q01DX009 (ip), vehicle: Klucel (hydroxypropylcellulose) (HPC)
[5] = dose: 400.0 mg/kg/injection, schedule: Q01DX009 (ip), vehicle: Klucel (hydroxypropylcellulose) (HPC)
[6] = dose: 100.0 mg/kg/injection, schedule: Q01DX001 (ip), vehicle: saline
[7] = dose: 200.0 mg/kg/injection, schedule: Q01DX001 (ip), vehicle: saline
[8] = dose: 400.0 mg/kg/injection, schedule: Q01DX001 (ip), vehicle: saline
[9] = dose: 100.0 mg/kg/injection, schedule: Q01DX001 (ip), vehicle: carboxymethylcellulose (CMC)
[10] = dose: 200.0 mg/kg/injection, schedule: Q01DX001 (ip), vehicle: carboxymethylcellulose (CMC)
[11] = dose: 400.0 mg/kg/injection, schedule: Q01DX001 (ip), vehicle: carboxymethylcellulose (CMC)
[12] = dose: 100.0 mg/kg/injection, schedule: Q04DX003 (ip), vehicle: Klucel (hydroxypropylcellulose) (HPC)
[13] = dose: 200.0 mg/kg/injection, schedule: Q04DX003 (ip), vehicle: Klucel (hydroxypropylcellulose) (HPC)
[14] = dose: 400.0 mg/kg/injection, schedule: Q04DX003 (ip), vehicle: Klucel (hydroxypropylcellulose) (HPC)
[15] = dose: 100.0 mg/kg/injection, schedule: Q04DX003 (ip), vehicle: saline
[16] = dose: 200.0 mg/kg/injection, schedule: Q04DX003 (ip), vehicle: saline
[17] = dose: 400.0 mg/kg/injection, schedule: Q04DX003 (ip), vehicle: saline

Measured: T/C

C=CC(COC(C)=O)N1CC1 (stereo not drawn)
inactive: dose: 1.0 mg/kg/injection, schedule: Q01DX Z (ip), vehicle: carboxymethylcellulose (CMC) 100 % of control | dose: 2.0 mg/kg/injection, schedule: Q01DX Z (ip), vehicle: carboxymethylcellulose (CMC) 92 % of control | dose: 4.0 mg/kg/injection, schedule: Q01DX Z (ip), vehicle: carboxymethylcellulose (CMC) 104 % of control | dose: 5.0 mg/kg/injection, schedule: Q01DX Z (oral), vehicle: saline 101 % of control | dose: 7.5 mg/kg/injection, schedule: Q01DX Z (ip), vehicle: saline 104 % of control | dose: 7.5 mg/kg/injection, schedule: Q01DX Z (oral), vehicle: saline 104 % of control | dose: 8.0 mg/kg/injection, schedule: Q01DX Z (ip), vehicle: carboxymethylcellulose (CMC) 101 % of control | dose: 10.0 mg/kg/injection, schedule: Q01DX Z (oral), vehicle: saline 104 % of control | dose: 12.0 mg/kg/injection, schedule: Q01DX Z (ip), vehicle: carboxymethylcellulose (CMC) 110 % of control | dose: 15.0 mg/kg/injection, schedule: Q01DX Z (ip), vehicle: saline 121 % of control | dose: 15.0 mg/kg/injection, schedule: Q01DX Z (oral), vehicle: saline 105 % of control | dose: 20.0 mg/kg/injection, schedule: Q01DX Z (oral), vehicle: saline 114 % of control | dose: 25.0 mg/kg/injection, schedule: Q01DX Z (ip), vehicle: carboxymethylcellulose (CMC) 96 % of control | dose: 30.0 mg/kg/injection, schedule: Q01DX Z (ip), vehicle: saline 97 % of control | dose: 40.0 mg/kg/injection, schedule: Q01DX Z (oral), vehicle: saline 116 % of control | dose: 60.0 mg/kg/injection, schedule: Q01DX Z (oral), vehicle: saline 100 % of control

COC(OC)c1[nH]c(=O)[nH]c(=O)c1F.[Hg]
inactive: dose: 3.0 mg/kg/injection, schedule: Q01DX009 (ip), vehicle: saline 97 % of control | dose: 6.0 mg/kg/injection, schedule: Q01DX009 (ip), vehicle: saline 97 % of control | dose: 12.0 mg/kg/injection, schedule: Q04DX003 (ip), vehicle: saline 98 % of control

Cc1ccc(S(C)=O)c(C)c1 (stereo not drawn)
inactive: [1] 97 % of control | [2] 96 % of control

Nc1cc(NC(=O)c2ccc(Cl)cc2)ccc1S(=O)(=O)O
inactive: dose: 100.0 mg/kg/injection, schedule: Q04DX002 (ip), vehicle: saline with Tween-80 104 % of control | dose: 200.0 mg/kg/injection, schedule: Q04DX002 (ip), vehicle: saline with Tween-80 93 % of control | dose: 400.0 mg/kg/injection, schedule: Q04DX002 (ip), vehicle: saline with Tween-80 93 % of control

Cc1[nH]c(=O)[nH]c(=O)c1/C=C/C(=O)NC(CO)CC(C)C (stereo not drawn)
inactive: dose: 12.5 mg/kg/injection, schedule: Q01DX009 (ip), vehicle: saline 98 % of control | dose: 25.0 mg/kg/injection, schedule: Q01DX009 (ip), vehicle: saline 102 % of control and 114 % of control | dose: 50.0 mg/kg/injection, schedule: Q01DX009 (ip), vehicle: saline 98 % of control | [1] 107 % of control and 108 % of control | [2] 101 % of control | dose: 300.0 mg/kg/injection, schedule: Q01DX009 (ip), vehicle: saline 114 % of control

Cc1cc(C)c(S(=O)(=O)Nc2ccccc2F)c(C)c1
inactive: [3] 98 % of control | [4] 110 % of control | [5] 93 % of control

CC1COP(Oc2ccccc2)O1 (stereo not drawn)
inactive: [6] 113 % of control | [7] 115 % of control | [8] 96 % of control

CC1CCN(C(=O)CCCCl)CC1
inactive: dose: 100.0 mg/kg/injection, schedule: Q04DX002 (ip), vehicle: saline 104 % of control | dose: 200.0 mg/kg/injection, schedule: Q04DX002 (ip), vehicle: saline 114 % of control

O=S1(=O)CCc2ccccc21
inactive: [6] 97 % of control | [7] 111 % of control | [8] 104 % of control

Clc1ccc(/C=N/c2snc3ccccc23)c(Cl)c1
inactive: dose: 100.0 mg/kg/injection, schedule: Q04DX002 (ip), vehicle: Klucel (hydroxypropylcellulose) (HPC) 95 % of control | dose: 200.0 mg/kg/injection, schedule: Q04DX002 (ip), vehicle: Klucel (hydroxypropylcellulose) (HPC) 88 % of control | dose: 400.0 mg/kg/injection, schedule: Q04DX002 (ip), vehicle: Klucel (hydroxypropylcellulose) (HPC) 92 % of control

CC(=O)C(C)C(=O)c1cc(C)c(Br)s1 (stereo not drawn)
inactive: [9] 94 % of control | [10] 97 % of control | [11] 94 % of control

CC(C)CCC[C@@H](C)[C@H]1CC[C@H]2[C@@H]3CC=C4C[C@@H](Cl)CC[C@]4(C)[C@H]3CC[C@]12C
inactive: dose: 100.0 mg/kg/injection, schedule: Q01DX009 (sc), vehicle: Klucel (hydroxypropylcellulose) (HPC) 110 % of control | dose: 200.0 mg/kg/injection, schedule: Q01DX009 (sc), vehicle: Klucel (hydroxypropylcellulose) (HPC) 101 % of control | dose: 400.0 mg/kg/injection, schedule: Q01DX009 (sc), vehicle: Klucel (hydroxypropylcellulose) (HPC) 114 % of control

CCOC(=O)/C=C(\C)OC
inactive: [3] 102 % of control | [12] 96 % of control | [4] 97 % of control | [13] 105 % of control | [5] 94 % of control | [14] 100 % of control

O=C(O)c1ccc([N+](=O)[O-])cc1P(=O)(O)O
inactive: dose: 75.0 mg/kg/injection, schedule: Q04DX003 (ip), vehicle: saline with Tween-80 103 % of control

CCc1cccc2c1C(=O)OC2=O
inactive: [1] 94 % of control | [2] 91 % of control

CC(C)(C)c1ccc(SC/C=C/COc2ccccc2)cc1
inactive: dose: 75.0 mg/kg/injection, schedule: Q01DX009 (ip), vehicle: Klucel (hydroxypropylcellulose) (HPC) 101 % of control | dose: 150.0 mg/kg/injection, schedule: Q01DX009 (ip), vehicle: Klucel (hydroxypropylcellulose) (HPC) 90 % of control | dose: 300.0 mg/kg/injection, schedule: Q01DX009 (ip), vehicle: Klucel (hydroxypropylcellulose) (HPC) 91 % of control

COC(=O)/C=C(\C)Nc1ccc(Cc2ccc(N/C(C)=C/C(=O)OC)cc2)cc1
inactive: [6] 95 % of control | [7] 86 % of control

CCOC(=O)C1(C(=O)OCC)CCC(O)N1C(=O)Cc1ccccc1[N+](=O)[O-] (stereo not drawn)
inactive: [12] 100 % of control | [13] 103 % of control | [14] 99 % of control

Brc1ccc(-c2nc3ccccc3c(Br)c2Br)cc1
inactive: [6] 90 % of control | [7] 94 % of control | [8] 90 % of control

C=C(Cl)CSC(=N)N
inactive: dose: 10.0 mg/kg/injection, schedule: Q01DX009 (ip), vehicle: saline 109 % of control | dose: 12.0 mg/kg/injection, schedule: Q01DX009 (ip), vehicle: Klucel (hydroxypropylcellulose) (HPC) 88 % of control | dose: 20.0 mg/kg/injection, schedule: Q01DX009 (ip), vehicle: saline 101 % of control | dose: 25.0 mg/kg/injection, schedule: Q01DX009 (ip), vehicle: Klucel (hydroxypropylcellulose) (HPC) 103 % of control | [15] 108 % of control | [16] 106 % of control | [17] 104 % of control

CCc1ccc(N=Nc2ccccc2)cc1
inactive: [9] 105 % of control | [10] 96 % of control | [11] 105 % of control

CC(=O)CCC(C)N=Cc1ccc(N(C)C)cc1 (stereo not drawn)
inactive: [15] 92 % of control | [16] 91 % of control | [17] 89 % of control
